Source: patent US7427625B2, “Substituted thiatriazaacenaphthylene-6-carbonitrile kinase inhibitors” (Janssen Pharmaceutica, N.V., priority 2006, dated 2008)

Key:
[1] = system: HCT-116 colon carcinoma; assay: Cell Proliferation Inhibition Assay (14C-thymidine incorporation), HCT116; format: cell-based; conditions: Homo sapiens
Experimental: (§1) The ability of a test compound to inhibit unregulated cell proliferation was determined by measuring incorporation of ^14C-labelled thymidine into newly synthesized DNA within cell lines derived from carcinomas originating from several tissues. Accordingly, the anti-proliferative effect of a compound on cells with a variety of phenotypes may be determined.
(§2) Carcinoma cell lines include those such as HeLa cervical adenocarcinoma (American Type Culture Collection (ATCC), Virginia, Cat. #CCL-2), A375 malignant melanoma (ATCC CRL-1619), SK-OV-3 ovarian adenocarcinoma (ATCC HTB-77), HCT-116 colon carcinoma (CCL-247), PC-3 prostate adenocarcinoma (ATCC CRL-1435), and MDA-MB-231 (Xenogen Corp.)
(§3) The carcinoma cells were trypsinized and counted. The cells (3000-8000 count) were added to each well of a 96-well CytoStar tissue culture treated scintillating microplate (Amersham #RPNQ0160) in complete medium (100 μL) and the plate was then incubated in complete medium for 24 hrs at 37° C. in an […] atmosphere containing 5% CO2. Test compound (1 μL) in 100% DMSO was added to the plate test-wells with DMSO only added to control-wells. The plate was incubated in complete medium for a second 24 hr period at 37° C. in an atmosphere containing 5% CO2.
(§4) An aliquot of a solution of Methyl ^14C-thymidine ([…]) (NEN #NEC568 or Amersham #CFA532) and complete medium (20 uL to provide 0.2 μCi/well) was then added to each well and the plate was incubated for a third 24 hr period at 37° C. in an atmosphere containing 5% CO2. The plate contents were then discarded, the plate was washed twice with PBS (200 μL) and then PBS (200 μL) was added to each well. The plate was sealed and the degree of methyl ^14C-thymidine incorporation was quantified on a Packard Top Count.

[2] = system: HeLa cervical adenocarcinoma; assay: Cell Proliferation Inhibition Assay (14C-thymidine incorporation), HeLa; format: cell-based; conditions: Homo sapiens
Experimental: as §1, §2, §3, §4

[3] = system: A375 malignant melanoma; assay: Cell Proliferation Inhibition Assay (14C-thymidine incorporation), A375; format: cell-based; conditions: Homo sapiens, A-375
Experimental: as §1, §2, §3, §4

[4] = target: T1, Lyn kinase (Homo sapiens, UniProt P07948); assay: Lyn Kinase Assay; format: biochemical; conditions: for inhibition at 2 µM: test concentration of 2 μM, read-out: Lyn percent inhibition
T1 construct: purchased Upstate Biotechnology, Lake Placid, N.Y
T1 sequence (P07948 whole entry): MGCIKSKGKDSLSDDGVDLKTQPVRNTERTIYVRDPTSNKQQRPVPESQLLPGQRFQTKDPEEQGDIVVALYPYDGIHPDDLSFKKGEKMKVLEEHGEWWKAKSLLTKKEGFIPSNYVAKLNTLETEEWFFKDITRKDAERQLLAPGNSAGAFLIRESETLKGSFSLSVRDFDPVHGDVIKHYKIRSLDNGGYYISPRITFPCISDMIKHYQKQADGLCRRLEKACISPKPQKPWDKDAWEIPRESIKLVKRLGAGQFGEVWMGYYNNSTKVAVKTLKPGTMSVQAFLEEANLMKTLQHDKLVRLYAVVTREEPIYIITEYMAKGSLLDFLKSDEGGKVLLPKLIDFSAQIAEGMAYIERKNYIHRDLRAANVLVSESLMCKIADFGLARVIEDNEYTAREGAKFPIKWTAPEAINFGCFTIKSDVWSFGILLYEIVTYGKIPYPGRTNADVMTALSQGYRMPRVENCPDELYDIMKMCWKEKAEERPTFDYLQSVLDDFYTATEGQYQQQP
Experimental: A mixture of a 10× kinase buffer (500 mM MOPS at pH 7.5, 1 mM EGTA, 1 mM Sodium Vanadate, 1% β-mercaptoethanol and 100 mM Magnesium Acetate), ATP (5 μM final from a 10 mM stock), polyGluTyr (0.1 mg/mL final from a 1 mg/mL stock), γ-^33P ATP (10 μCi/μL stock) and water (20 μL/well) was added to each well of a Streptavidin Flashplate.
Test compound in 100% DMSO (0.5 μL) was added to the appropriate wells. Diluted Lyn kinase (human) (Upstate Biotechnology, Lake Placid, N.Y.) (diluted in a buffer consisting of 50 mM Tris at pH 7.5, 0.1 mM EGTA, Sodium Vanadate (0.1 mM), β-mercaptoethanol (0.1%) and 1 mg/mL bovine serum albumin) (2.5 μL) was added to the wells to initiate the reactions.
The reaction plates were incubated at 30° C. for 40 min. The reaction was terminated by the addition of a 3% phosphoric acid solution (5 μL). The reaction product (10 μL) was spotted onto a P30 filtermat and washed for 5 minutes in phosphoric acid (75 mM). The wash sequence was repeated two more times, followed with one final wash in methanol. The plates were then dried, sealed and read on the TopCount scintillation counter after adding 30 μL scintillation fluid.
Percent inhibition was derived according to the procedure described in Example 2. For those compounds without an IC50, the percent inhibition results are shown at a test concentration of 2 μM.

SMILES | IC50 [1] | IC50 [2] | IC50 [3] | inhibition at 2 µM [4] | other results
N#Cc1cnc2sc(C(=O)Nc3ccc(CN4CCCCC4)cc3)c3c2c1N(c1ccc(Oc2ccccc2)cc1)C(=O)N3 [Cpd 49, 6-cyano-4-oxo-5-(4-phenoxy-phenyl)-4,5-dihydro-3H-1-thia-3,5,8-triaza-acenaphthylene-2-carboxylic acid (4-piperidin-1-ylmethyl-phenyl)-amide] | 0.985 µM | 2.19 µM | 1.38 µM |  | 
COc1cc(N2C(=O)Nc3c(C(=O)Nc4ccc(CCN5CCOCC5)cc4)sc4ncc(C#N)c2c34)c(Cl)cc1Cl [Cpd 6, 6-cyano-5-(2,4-dichloro-5-methoxy-phenyl)-4-oxo-4,5-dihydro-3H-1-thia-3,5,8-triaza-acenaphthylene-2-carboxylic acid [4-(2-morpholin-4-yl-ethyl)-phenyl]-amide] |  |  |  | 75% | 
N#Cc1cnc2sc(C(=O)Nc3ccc(CCN4CCOCC4)cc3)c3c2c1N(c1c(Cl)ccc2c1OCO2)C(=O)N3 [Cpd 13, 5-(5-chloro-benzo[1,3]dioxol-4-yl)-6-cyano-4-oxo-4,5-dihydro-3H-1-thia-3,5,8-triaza-acenaphthylene-2-carboxylic acid [4-(2-morpholin-4-yl-ethyl)-phenyl]-amide] |  |  |  | 76% | 
N#Cc1cnc2sc(C(=O)Nc3ccc(CN4CCOCC4)cc3)c3c2c1N(c1c(Cl)ccc2c1OCO2)C(=O)N3 [Cpd 4, 5-(5-chloro-benzo[1,3]dioxol-4-yl)-6-cyano-4-oxo-4,5-dihydro-3H-1-thia-3,5,8-triaza-acenaphthylene-2-carboxylic acid (4-morpholin-4-ylmethyl-phenyl)-amide] |  |  |  |  | IC50 [4]: 0.477 µM
COc1cc(N2C(=O)Nc3c(C(=O)Nc4ccc(CN5CCOCC5)cc4)sc4ncc(C#N)c2c34)c(Cl)cc1Cl [Cpd 5, 6-cyano-5-(2,4-dichloro-5-methoxy-phenyl)-4-oxo-4,5-dihydro-3H-1-thia-3,5,8-triaza-acenaphthylene-2-carboxylic acid (4-morpholin-4-ylmethyl-phenyl)-amide] |  |  |  | 83% | 
N#Cc1c(N2CCOCC2)nc2sc(C(=O)Nc3ccc(CN4CCOCC4)cc3)c3c2c1N(c1c(Cl)ccc2c1OCO2)C(=O)N3 [Cpd 8, 5-(5-chloro-benzo[1,3]dioxol-4-yl)-6-cyano-7-morpholin-4-yl-4-oxo-4,5-dihydro-3H-1-thia-3,5,8-triaza-acenaphthylene-2-carboxylic acid (4-morpholin-4-ylmethyl-phenyl)-amide] |  |  |  | 40% | 
CN1CCC(NC(=O)c2sc3ncc(C#N)c4c3c2NC(=O)N4c2c(Cl)ccc3c2OCO3)CC1 [Cpd 10, 5-(5-chloro-benzo[1,3]dioxol-4-yl)-6-cyano-4-oxo-4,5-dihydro-3H-1-thia-3,5,8-triaza-acenaphthylene-2-carboxylic acid (1-methyl-piperidin-4-yl)-amide] |  |  |  |  | IC50 [4]: 0.268 µM
N#Cc1cnc2sc(C(=O)Nc3ccc(CCN4CCCCC4)cc3)c3c2c1N(c1c(Cl)ccc2c1OCO2)C(=O)N3 [Cpd 11, 5-(5-chloro-benzo[1,3]dioxol-4-yl)-6-cyano-4-oxo-4,5-dihydro-3H-1-thia-3,5,8-triaza-acenaphthylene-2-carboxylic acid [4-(2-piperidin-1-yl-ethyl)-phenyl]-amide] |  |  |  |  | IC50 [4]: 0.113 µM
N#Cc1cnc2sc(C(=O)Nc3ccc(CCN4CCCCC4)cc3)c3c2c1N(c1ccc(Oc2ccccc2)cc1)C(=O)N3 [Cpd 48, 6-cyano-4-oxo-5-(4-phenoxy-phenyl)-4,5-dihydro-3H-1-thia-3,5,8-triaza-acenaphthylene-2-carboxylic acid [4-(2-piperidin-1-yl-ethyl)-phenyl]-amide] | 15.8 µM | > 10 µM | 8.29 µM |  | 
Cc1nc2sc(C(=O)Nc3ccc(CN4CCOCC4)cc3)c3c2c(c1C#N)N(c1c(Cl)ccc2c1OCO2)C(=O)N3 [Cpd 9, 5-(5-chloro-benzo[1,3]dioxol-4-yl)-6-cyano-7-methyl-4-oxo-4,5-dihydro-3H-1-thia-3,5,8-triaza-acenaphthylene-2-carboxylic acid (4-morpholin-4-ylmethyl-phenyl)-amide] |  |  |  | 58% | 
COc1cc(NC(=O)c2sc3ncc(C#N)c4c3c2NC(=O)N4c2ccc(Oc3ccccc3)cc2)ccc1CN1CCOCC1 [Cpd 45, 6-cyano-4-oxo-5-(4-phenoxy-phenyl)-4,5-dihydro-3H-1-thia-3,5,8-triaza-acenaphthylene-2-carboxylic acid (3-methoxy-4-morpholin-4-ylmethyl-phenyl)-amide] | > 10 µM | > 100 µM | > 10 µM |  | 
CCOC(=O)c1sc2nc(N3CCOCC3)c(C#N)c3c2c1NC(=O)N3c1c(Cl)ccc2c1OCO2 [Cpd 7, 5-(5-chloro-benzo[1,3]dioxol-4-yl)-6-cyano-7-morpholin-4-yl-4-oxo-4,5-dihydro-3H-1-thia-3,5,8-triaza-acenaphthylene-2-carboxylic acid ethyl ester] |  |  |  | 43% | 

The next lines start with results.

IC50 [1] | IC50 [2] | IC50 [3] | inhibition at 2 µM [4] | SMILES | other results
 |  |  | 93% | CN1CCN(CCc2ccc(NC(=O)c3sc4ncc(C#N)c5c4c3NC(=O)N5c3c(Cl)ccc4c3OCO4)cc2)CC1 [Cpd 12, 5-(5-chloro-benzo[1,3]dioxol-4-yl)-6-cyano-4-oxo-4,5-dihydro-3H-1-thia-3,5,8-triaza-acenaphthylene-2-carboxylic acid {4-[2-(4-methyl-piperazin-1-yl)-ethyl]-phenyl}-amide] | 
> 10 µM | > 100 µM | > 100 µM |  | CN(C)C1CCN(C(=O)c2sc3ncc(C#N)c4c3c2NC(=O)N4c2c(Cl)ccc3c2OCO3)CC1 [Cpd 41, 5-(5-chloro-benzo[1,3]dioxol-4-yl)-2-(4-dimethylamino-piperidine-1-carbonyl)-4-oxo-4,5-dihydro-3H-1-thia-3,5,8-triaza-acenaphthylene-6-carbonitrile] | 
> 10 µM | > 10 µM | > 10 µM |  | CC(C)(C)OC(=O)NC1CCN(Cc2ccc(NC(=O)c3sc4ncc(C#N)c5c4c3NC(=O)N5c3c(Cl)ccc4c3OCO4)cc2)CC1 [Cpd 46, [1-(4-{[5-(5-chloro-benzo[1,3]dioxol-4-yl)-6-cyano-4-oxo-4,5-dihydro-3H-1-thia-3,5,8-triaza-acenaphthylene-2-carbonyl]-amino}-benzyl)-piperidin-4-yl]-carbamic acid tert-butyl ester] | 
 |  |  | 86% | COC1CCN(Cc2ccc(NC(=O)c3sc4ncc(C#N)c5c4c3NC(=O)N5c3c(Cl)ccc4c3OCO4)cc2)CC1 [Cpd 18, 5-(5-chloro-benzo[1,3]dioxol-4-yl)-6-cyano-4-oxo-4,5-dihydro-3H-1-thia-3,5,8-triaza-acenaphthylene-2-carboxylic acid [4-(4-methoxy-piperidin-1-ylmethyl)-phenyl]-amide] | 
> 100 µM | > 100 µM | > 100 µM |  | CN(C)C1CCN(Cc2ccc(NC(=O)c3sc4ncc(C#N)c5c4c3NC(=O)N5c3c(Cl)ccc4c3OCO4)cc2)CC1 [Cpd 42, 5-(5-chloro-benzo[1,3]dioxol-4-yl)-6-cyano-4-oxo-4,5-dihydro-3H-1-thia-3,5,8-triaza-acenaphthylene-2-carboxylic acid [4-(4-dimethylamino-piperidin-1-ylmethyl)-phenyl]-amide] | 
